Laboratory results as given in patent US9963452B2, “Methods, compounds, and compositions for inhibition of ROS” (AUGUSTA PHARMACEUTICALS INC., priority 2013, dated 2018).

Tests used:
Type in all cases: cell-based
[1] = system: U138 glioblastoma cell line; assay: In-vitro cell survival assay (Alamar blue), U138; conditions: 24 h; U138, one day after compound addition
Procedure: (§1) Five tumor-derived cell lines were treated with the ROS inhibitor compounds and cell survival was monitored to determine the cancer prohibition effects of the compounds. The cell lines included HeLa, a cervical cancer cell line, and four glioblastoma cell lines U138, U87, LN18, and U118. The basic protocol for the in-vitro cell survival assay is the same for all five cell lines. In particular, the cells were seeded in 96-well plates at 2-5×10^3 cells/well (cell line dependent) in culture medium. The cells were grown for 2 days before the compounds were dissolved in DMSO and added to final concentrations of 100 uM, 10 uM, or 1 uM (DMSO final concentration 0.5%). The cell culture was then assayed one day after the addition of the compounds. The assay used Alamar blue as a redox-sensitive dye that interrogates mitochondrial fitness of cells, and these assays provided a readout for cell proliferation and viability. The raw values were normalized to an average of several vehicle control wells and are presented as percent decrease in proliferation/viability, which is converted to half maximal effective concentration (EC50) values.

[2] = system: LN18 glioblastoma cell line; assay: In-vitro cell survival assay (Alamar blue), LN18; conditions: Homo sapiens, LN-18, 24 h; LN18, one day after compound addition
Procedure: as §1

[3] = system: U87 glioblastoma cell line; assay: In-vitro cell survival assay (Alamar blue), U87; conditions: 24 h; U87, one day after compound addition
Procedure: as §1

[4] = system: HeLa cervical cancer cell line; assay: In-vitro cell survival assay (Alamar blue), HeLa; conditions: Homo sapiens, 24 h, one day after compound addition
Procedure: as §1

[5] = system: U118 glioblastoma cell line; assay: In-vitro cell survival assay (Alamar blue), U118; conditions: 24 h; U118, one day after compound addition
Procedure: as §1

SMILES: COc1ccc(C2=CCNCC2)cc1Nc1nccc(Nc2ccc3ncsc3c2)n1 [drawing 467]
- EC50 [1]: 6.9 µM
- EC50 [2]: 15 µM
- EC50 [3]: 18 µM
- EC50 [4]: 15 µM

SMILES: CCc1cc(Br)ccc1NC(=O)CCn1ccc2ccccc21 [drawing 478]
- EC50 [1]: > 100 µM
- EC50 [5]: > 100 µM
- EC50 [4]: 43 µM

SMILES: CC(C)c1nc(Nc2ccc3ncsc3c2)nc(N2CCOCC2)n1 [drawing 452]
- EC50 [1]: 80 µM
- EC50 [2]: 80 µM
- EC50 [3]: > 100 µM
- EC50 [4]: 100 µM

SMILES: O=C(CC1=Nc2cccc3cccc(c23)NC1=O)NCc1cccc(I)c1 [drawing 483]
- EC50 [1]: > 100 µM
- EC50 [5]: 51 µM
- EC50 [4]: 10 µM

SMILES: O=C(NCC1CCNCC1)c1cccc(Nc2ncc(Cl)c(Nc3ccc4ncsc4c3)n2)c1 [drawing 471]
- EC50 [1]: 80 µM
- EC50 [2]: 30 µM
- EC50 [3]: 80 µM
- EC50 [4]: 30 µM

SMILES: CC(C)c1nc(Nc2ccc(C(=O)N3CCCCC3)cc2)nc(Nc2ccc3ncsc3c2)n1 [drawing 455]
- EC50 [1]: 18 µM
- EC50 [2]: 30 µM
- EC50 [3]: 40 µM
- EC50 [4]: 30 µM

SMILES: CN1CCN(C(=O)c2cccc(Nc3ncc(Cl)c(Nc4ccc5ncsc5c4)n3)c2)CC1 [drawing 466]
- EC50 [1]: 15 µM
- EC50 [2]: 15 µM
- EC50 [3]: 24 µM
- EC50 [4]: 2 µM

SMILES: Nc1cccc2cccc(N=C(CC(=O)O)C(=O)O)c12 [drawing 481]
- EC50 [1]: > 100 µM
- EC50 [5]: > 100 µM
- EC50 [4]: 63 µM

SMILES: Nc1cccc(C2CCN(c3nccc(Nc4ccc5ncsc5c4)n3)CC2)c1 [drawing 439]
- EC50 [1]: 5 µM
- EC50 [2]: 15 µM
- EC50 [3]: 14 µM
- EC50 [4]: 6 µM

SMILES: CC(C)c1nc(Nc2ccc(C(=O)NC3CCCCC3)cc2)nc(Nc2ccc3ncsc3c2)n1 [drawing 456]
- EC50 [1]: 40 µM
- EC50 [2]: 30 µM
- EC50 [3]: 45 µM
- EC50 [4]: 28 µM

SMILES: COc1ccc(NC(=O)CCn2ccc3ccccc32)cc1 [drawing 474]
- EC50 [1]: > 100 µM
- EC50 [5]: > 100 µM
- EC50 [4]: 30 µM

SMILES: NCC1CCN(C(=O)c2cccc(Nc3ncc(Cl)c(Nc4ccc5ncsc5c4)n3)c2)CC1 [drawing 470]
- EC50 [1]: 20 µM
- EC50 [2]: 19 µM
- EC50 [3]: 18 µM
- EC50 [4]: 3 µM

SMILES: CC(C)c1nc(Nc2ccc(C(=O)N3CCOCC3)cc2)nc(Nc2ccc3ncsc3c2)n1 [drawing 460]
- EC50 [1]: > 100 µM
- EC50 [2]: 80 µM
- EC50 [3]: > 100 µM
- EC50 [4]: 35 µM

SMILES: NC1CCN(C(=O)c2cccc(Nc3ncc(Cl)c(Nc4ccc5ncsc5c4)n3)c2)CC1 [drawing 469]
- EC50 [1]: 25 µM
- EC50 [2]: 40 µM
- EC50 [3]: 35 µM
- EC50 [4]: 20 µM

SMILES: O=C(CCn1ccc2ccccc21)Nc1cnccn1 [drawing 477]
- EC50 [1]: 92 µM
- EC50 [5]: 33 µM
- EC50 [4]: 64 µM

SMILES: CC(C)c1nc(Nc2ccc(C(=O)NCc3ccccc3)cc2)nc(Nc2cccc(Cc3nc4ccccc4s3)c2)n1 [drawing 453]
- EC50 [1]: > 100 µM
- EC50 [2]: > 100 µM
- EC50 [3]: > 100 µM
- EC50 [4]: > 100 µM

SMILES: O=C(O)c1ccc(Nc2ncc(Cl)c(Nc3ccc4ncsc4c3)n2)cc1 [drawing 445]
- EC50 [1]: 100 µM
- EC50 [2]: 18 µM
- EC50 [3]: > 100 µM
- EC50 [4]: 5 µM

SMILES: Brc1cccc(Nc2nccc(Nc3ccc4ncsc4c3)n2)c1 [drawing 442]
- EC50 [1]: > 100 µM
- EC50 [2]: > 100 µM
- EC50 [3]: > 100 µM
- EC50 [4]: > 100 µM

SMILES: c1cc(Nc2nccc(Nc3ccc4ncsc4c3)n2)cc(C2CCNCC2)c1 [drawing 440]
- EC50 [1]: 25 µM
- EC50 [2]: 18 µM
- EC50 [3]: 35 µM
- EC50 [4]: 15 µM

SMILES: CC(C)(C)OC(=O)NC1CCN(C(=O)c2ccc(Nc3ncc(Cl)c(Nc4ccc5ncsc5c4)n3)cc2)CC1 [drawing 446]
- EC50 [1]: 9 µM
- EC50 [2]: 18 µM
- EC50 [3]: 80 µM
- EC50 [4]: 15 µM

SMILES: CC(C)c1nc(Nc2ccc(C(=O)N3CCN(C)CC3)cc2)nc(Nc2ccc3ncsc3c2)n1 [drawing 458]
- EC50 [1]: 28 µM
- EC50 [2]: 40 µM
- EC50 [3]: 35 µM
- EC50 [4]: 30 µM

SMILES: NC1CCN(C(=O)c2ccc(Nc3ncc(Cl)c(Nc4ccc5ncsc5c4)n3)cc2)CC1 [drawing 464]
- EC50 [1]: 60 µM
- EC50 [2]: 40 µM
- EC50 [3]: 40 µM
- EC50 [4]: 30 µM

SMILES: CC(C)c1nc(Nc2ccc(C(=O)NCc3ccccc3)cc2)nc(Nc2ccc3ncsc3c2)n1 [drawing 459]
- EC50 [1]: 80 µM
- EC50 [2]: 80 µM
- EC50 [3]: 100 µM
- EC50 [4]: 35 µM

SMILES: NC(Cc1ccccc1)C(=O)n1ccc2cccnc21 (stereo not drawn) [drawing 479]
- EC50 [1]: > 100 µM
- EC50 [5]: > 100 µM
- EC50 [4]: 45 µM
